This note sets out measurements from patent US20110033906A1 (priority 2009, published 2011).

Series [1] deals with cellulase surface-displaying yeast (arming yeast). The conditions noted are these: 120 hours after the start of fermentation.

On to “1-ethyl-3-methylimidazolium diethylphosphate [[Emim][DEP]]”, for which the “ethanol yield relative to theoretical yield” value in series [1] is given as “about 56%”. Further, the ethanol obtained in series [1] (crystalline cellulose (Avicel) pretreated with [Emim][DEP], arming yeast, ionic liquid present) is 1.43 g/L. For the compound `CCn1cc[n+](C)c1` [[Emim][Cl], 1-ethyl-3-methylimidazolium chloride], the “yeast survivability (live cell counts)” value in the series with yeast (MT 8-1) is listed as “not greatly affected”.
